Test results from patent publication US11472758B2, “Methods for obtaining compounds from a plant or fungus material, respective compositions, and uses thereof” (Real Isolates, LLC, priority 2020, dated 2022).

Key:
[1] = tested on: volunteer with HNPP; assay: Human trial of HCD or MCD for hereditary neuropathy with liability to pressure palsy (HNPP); assay type: in vivo
Description: A volunteer has a rare genetic disorder, HNPP, resulting in neuropathic pain, muscle weakness, numbness, and loss of fine motor skills. The volunteer previously needed high doses (more than 5 g/day) of medical Cannabis to receive beneficial effects, but reduced overall intake when they began taking HCD and MCD. Their current dose schedule is 15-30 mg of HCD per day (˜7 mg-15 mg CBD) and MCD as needed. They are not taking any other medication.

[2] = tested on: volunteer with severe Crohn's disease; assay: Human trial of HCD or MCD for Crohn's disease; assay type: in vivo
From the text: A volunteer with severe Crohn's disease and who has had over 50 hospital emergency visits since diagnosis in 2015. Treatment with multiple pharmaceutical agents were unsuccessful. They stopped using all pharmaceutical agents in 2018. In August 2020, they began using HCD and MCD. They were able to completely stop a Crohn's disease flare in November 2020 using two consecutive doses of MCD.

[3] = tested on: volunteer with severe, chronic migraines; assay: Human trial of HCD or MCD for chronic migraine; assay type: in vivo
[4] = tested on: volunteer with a developmental disorder; assay: Human trial of HCD or MCD for autism spectrum/schizophrenia spectrum disorder; assay type: in vivo
From the text: An assigned person at birth nonbinary volunteer with a history of a developmental disorder whose symptoms span both Autism Spectrum Disorder and Schizophrenia Spectrum Disorder. They stopped taking all psychopharmaceutical agents in 2010 after beginning to use medical Cannabis daily. Outside of 3 relapses due to over 14+ days without Cannabis, they have had no issues managing their symptoms since. Due to decreased symptoms, they are highly functional, fully independent, and no longer meet criteria for their previous diagnoses. In August 2020, they began using the HCD and MCD. They have not missed a single dose of HCD in 5 months; it is their longest span of completely continuous compliance.

[5] = target: T1, CB1R (Homo sapiens, UniProt P21554); settings: known; cited from earlier work
T1 sequence (P21554 whole entry): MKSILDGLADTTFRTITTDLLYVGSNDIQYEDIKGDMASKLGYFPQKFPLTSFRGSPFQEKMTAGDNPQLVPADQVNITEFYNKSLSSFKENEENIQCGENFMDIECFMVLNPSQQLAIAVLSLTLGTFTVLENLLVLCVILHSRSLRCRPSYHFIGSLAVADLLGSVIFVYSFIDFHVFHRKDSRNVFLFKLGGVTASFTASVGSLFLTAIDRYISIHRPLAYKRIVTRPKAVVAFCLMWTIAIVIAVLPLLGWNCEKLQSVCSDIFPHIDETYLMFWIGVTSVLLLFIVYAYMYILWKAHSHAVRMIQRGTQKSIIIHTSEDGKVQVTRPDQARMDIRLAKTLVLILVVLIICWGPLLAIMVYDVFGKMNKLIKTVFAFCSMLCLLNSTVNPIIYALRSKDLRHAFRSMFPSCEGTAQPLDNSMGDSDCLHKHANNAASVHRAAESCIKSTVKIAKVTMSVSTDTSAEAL

[6] = target: T2, CB2R (Homo sapiens, UniProt P34972); settings: known; cited from earlier work
T2 sequence (P34972 whole entry): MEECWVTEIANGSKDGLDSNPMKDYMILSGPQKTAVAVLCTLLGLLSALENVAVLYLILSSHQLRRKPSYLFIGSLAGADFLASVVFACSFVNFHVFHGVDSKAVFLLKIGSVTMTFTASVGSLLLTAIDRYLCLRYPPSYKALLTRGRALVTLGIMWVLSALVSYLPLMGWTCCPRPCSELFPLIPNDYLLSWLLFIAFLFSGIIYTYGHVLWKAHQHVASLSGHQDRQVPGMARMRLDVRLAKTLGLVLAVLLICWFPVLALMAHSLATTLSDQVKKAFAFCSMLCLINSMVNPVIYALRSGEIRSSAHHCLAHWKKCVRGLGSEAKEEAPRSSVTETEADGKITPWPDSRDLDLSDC

[7] = tested on: mice; settings: cited from earlier work
[8] = has been shown; cited from earlier work
[9] = tested on: CB1R; settings: performed similarly to THC, but at a lower potency; cited from earlier work
[10] = tested on: 15-lipoxygenase (15-LOX); settings: has been shown; cited from earlier work
[11] = target: T1, CB1R; set-up: host or cells: brain synaptosomal samples; COS-7 over-expression; settings: brain synaptosomal samples; COS-7 over-expression model; cited from earlier work
[12] = target: T2, CB2R; set-up: host or cells: brain synaptosomal samples; COS-7 over-expression; settings: brain synaptosomal samples; COS-7 over-expression model; cited from earlier work
[13] = smoking/inhalation at 575-600° F., 25 mg CBD isolate
[14] = smoking/inhalation at 575-600° F., 7 mg CBD isolate

In the case of `C=C(C)[C@@H]1CCC(C)=C[C@H]1c1c(O)cc(CCCCC)cc1O` [CBD, cannabidiol], the “Effect after oral administration” value ([1]; oral, 15-30 mg HCD or same dose of commercially available CBD isolate) is reported as “no noticeable effect”, the “Time at which effects began to wear off” value [1, 13] is reported as 45 min and the “Time at which no noticeable effects remained” value [1, 13] is reported as 60 min. For the same compound, the “Time at which pain relief began” value [1, 13] was 10 min, the “Oral dose needed to achieve results similar to 15 mg HCD” value ([2]; commercially available CBD isolate, two or more consecutive days) was “over 50 mg” and the “Time at which effects began to wear off” value [2, 14] was 45 min. The “Time at which no noticeable effects remained” value [2, 14] was 60 min, the “Time of decreased pain, stress, and anxiety” value [2, 14] was 15 min and the Effect on migraines ([3]; commercial CBD isolate 50 mg/day titrated up to 250 mg/day, after two months) was “marked decrease in the number and severity of migraines”. For the same compound, the “Oral dose needed to achieve results similar to 15 mg HCD” value ([3]; commercially available CBD isolate, anxiety, migraine threshold, migraine severity) was “over 200 mg”, the “After effect observed the next day” value ([4]; 400-600 mg commercially available CBD isolate) was ““hangover”” and the Negative side effects ([4]; doses of 50 mg/day of CBD) was “forgetfulness/brain fog, apathy, decreased endurance, decreased strength, interrupted sleep routine”. The “Dose used to abort panic attacks and/or break perseverative loops” value ([4]; oral, same efficacy) was 400 to 600 mg, the “Potency compared to orally ingested hemp Cannabis distillate (times less potent)” value ([4]; orally ingested, Example 20) was “at least 10 times” and the “Activity at CB1R” value [5] was “neutral antagonist activity at nanomolar concentrations”. The “Activity at CB2R” value [6] was “neutral antagonist activity at nanomolar concentrations”.
For `CCCCCc1cc(O)c2c(c1)OC(C)(C)c1ccc(C)cc1-2` [CBN, cannabinol], the Pentobarbital-induced sleeping time [7] is listed as “double”.
For `CCCCCc1cc(O)c2c(c1)OC(C)(C)[C@@H]1CCC(C)=C[C@@H]21` [THC, Δ9-tetrahydrocannabinol], the “Activity at CB2R” value [6] is listed as “partial agonist activity at nanomolar concentrations”.
For `C=C1CC[C@@H]2[C@@H](C1)c1c(O)cc(CCCCC)cc1OC2(C)C` [exo-tetrahydrocannabinol], the Antibacterial activity [8] is given as “potent antibacterial activity”, the “Interaction with CB1R” value [5] is given as “interact with CB1R” and the “Activity in drug discrimination trials” value [9] is given as “partial agonist activity”.
In the case of `C=C(C)[C@@H]1CCC(C)=C[C@H]1c1c(O)cc(CCCCC)cc1OC` [omCBD, o-methylcannabidiol], the 15-LOX inhibition [10] is listed as “selective and potent”.
In the case of `CCCCCc1cc(OC)c2c(c1)OC(C)(C)c1ccc(C)cc1-2` [omCBN, o-methylcannabinol], the “Potency at CB1 receptor relative to CBN” value [11] is listed as “vastly increase its potency” and the “Potency at CB2 receptor relative to CBN” value [12] is listed as “vastly increase its potency”.
In the case of `CCCCCOc1cc(CCCCC)cc2c1-c1cc(C)ccc1C(C)(C)O2` [opeCBN, o-pentylcannabinol], the “Potency at CB1 receptor relative to CBN” value [11] is given as “vastly increase its potency” and the “Potency at CB2 receptor relative to CBN” value [12] is given as “vastly increase its potency”.
For `CCCCCc1cc(OCCC)c2c(c1)OC(C)(C)c1ccc(C)cc1-2` [oprCBN, o-propylcannabinol], the “Potency at CB1 receptor relative to CBN” value [11] is listed as “vastly increase its potency” and the “Potency at CB2 receptor relative to CBN” value [12] is listed as “vastly increase its potency”.
For `CCCCCc1cc(O)c2c(c1)OC(C)(C)C1CCC(C)C=C21` (centres unmarked) [Δ10-Tetrahydrocannabinol, Δ10-tetrahydrocannabinol], the “Interaction with CB1R” value [5] is listed as “interact with CB1R”.
